Source: patent publication US20230085307A1, “PYRIDAZINONE COMPOUND AND HERBICIDE” (NISSAN CHEMICAL CORPORATION, priority 2019, published 2023)

How the values were obtained:
[1] = system: false cleavers; experiment: Test Example 5: herbicidal effect by foliage application, plastic box (Table 20, symbol Q); type: in vivo, false cleavers (Galium spurium); conditions: foliage application; for herbicidal effect grade, Q: false cleavers / effect on false cleavers (Q) / herbicidal effect on Q: false cleavers: 320 g/ha; for effect on false cleavers (Q): 3 weeks after application; for herbicidal effect on Q: false cleavers / Q: false cleavers, herbicidal effect (criteria 0-5): evaluated three weeks after application
Method in brief: (§1)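 Plants were sown into sterilized diluvial soil under about 1.5 cm cover and kept in a greenhouse at 25° C. to 30° C. Fourteen days on, foliage received an even spray of the diluted emulsion. Herbicidal or crop effect was judged three weeks afterwards.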

[2] = system: false cleavers; experiment: Test Example 4: herbicidal effect by soil treatment (Table 19, symbol Q); type: in vivo, false cleavers (Galium spurium)
Method in brief: (§2)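 Pre-emergence style soil spray: seeds under ~1.5 cm sterilized diluvial soil received a uniform coat of emulsion diluted to the predetermined herbicide amount. Greenhouse 25–30° C; readout at week three on previously defined criteria.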

[3] = system: rapeseed; experiment: Test Example 4: effect on crop by soil treatment (Table 19, symbol g); type: in vivo
Method in brief: as §2

[4] = system: corn; experiment: Test Example 5: effect on crop by foliage application, plastic box (Table 20, symbol c); type: in vivo; conditions: 320 g/ha
Method in brief: as §1

[5] = system: wheat; experiment: Test Example 4: effect on crop by soil treatment (Table 19, symbol e); type: in vivo
Method in brief: as §2

[6] = system: soybean; experiment: Test Example 4: effect on crop by soil treatment (Table 19, symbol d); type: in vivo
Method in brief: as §2

[7] = system: transplanted rice; experiment: Test Example 1: effect on crop, application before weed generation under submerged conditions (Table 16, symbol a); type: in vivo; conditions: 320 g/ha applied herbicide
Method in brief: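 Submerged Wagner pots (alluvial soil, 4 cm water) sown with weed seeds and planted with 2.5-leaf rice seedlings; emulsifiable concentrate diluted in water applied to water surface on sowing day. Held in greenhouse at 25-30 °C; injury scored 0-5 by herbicidal rate after three weeks.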

[8] = system: corn; experiment: Test Example 4: effect on crop by soil treatment (Table 19, symbol c); type: in vivo
Method in brief: as §2

[9] = system: wheat; experiment: Test Example 5: effect on crop by foliage application, plastic box (Table 20, symbol e); type: in vivo; conditions: 320 g/ha
Method in brief: as §1

[10] = system: rapeseed; experiment: Test Example 5: effect on crop by foliage application, plastic box (Table 20, symbol g); type: in vivo; conditions: 320 g/ha
Method in brief: as §1

[11] = system: directly sowed rice; experiment: Test Example 3: effect on crop by foliage application, Wagner pot (Table 18, symbol b); type: in vivo; conditions: 320 g/ha
Method in brief: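 Plants were sown in alluvial soil held under 0.1–0.5 cm standing water and grown 14 days in a greenhouse at 25–30 °C. An emulsifiable formulation, water-diluted to the set dose, was then sprayed onto the foliage, and effects were scored three weeks later using previously defined criteria.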

[12] = system: soybean; experiment: Test Example 5: effect on crop by foliage application, plastic box (Table 20, symbol d); type: in vivo; conditions: 320 g/ha
Method in brief: as §1

[13] = system: beet; experiment: Test Example 5: effect on crop by foliage application, plastic box (Table 20, symbol f); type: in vivo; conditions: 320 g/ha
Method in brief: as §1

[14] = system: beet; experiment: Test Example 4: effect on crop by soil treatment (Table 19, symbol f); type: in vivo
Method in brief: as §2

[15] = amount of applied herbicide 320 g/ha

CCCOc1ccc(-c2sc3ccccc3c2-c2c(O)c(C)nn(C)c2=O)cc1 [1-019]
herbicidal effect grade, Q: false cleavers ([1]; three weeks after application): 3 (Herbicidal rate of 40% or more and less than 70%)
herbicidal effect rating, Q: false cleavers [2, 15]: 0 (Herbicidal rate of 5% or less (almost no effect))

Cc1nn(C)c(=O)c(-c2c(-c3ccc(OC(C)C)cc3)sc3ccccc23)c1O [1-020]
herbicidal effect rating, Q: false cleavers [2, 15]: 0 (Herbicidal rate of 5% or less (almost no effect))

CCCCOc1ccc(-c2sc3ccccc3c2-c2c(O)c(C)nn(C)c2=O)cc1 [1-024]
herbicidal effect grade, Q: false cleavers ([1]; three weeks after application): 4 (Herbicidal rate of 70% or more and less than 90%)
herbicidal effect rating, Q: false cleavers [2, 15]: 0 (Herbicidal rate of 5% or less (almost no effect))

CCCCOc1ccc(-c2sc3ccccc3c2-c2c(OC(=O)CCC)c(C)nn(C)c2=O)cc1 [1-025]
herbicidal effect grade, Q: false cleavers ([1]; three weeks after application): 3 (Herbicidal rate of 40% or more and less than 70%)
herbicidal effect rating, Q: false cleavers [2, 15]: 0 (Herbicidal rate of 5% or less (almost no effect))

CCCC(=O)Oc1c(C)nn(C)c(=O)c1-c1c(-c2ccc(SC)cc2)sc2ccccc12 [1-037]
herbicidal effect rating, Q: false cleavers [2, 15]: 0 (Herbicidal rate of 5% or less (almost no effect))

Cc1nn(C)c(=O)c(-c2c(-c3ccc4c(c3)OCCO4)sc3ccccc23)c1O [1-089]
herbicidal effect rating, Q: false cleavers [2, 15]: 5 (Herbicidal rate of 90% or more (almost completely withered))

C=CCOc1ccccc1-c1sc2ccccc2c1-c1c(O)c(C)nn(C)c1=O [1-110]
Q: false cleavers, herbicidal effect ([1]; AAH 320 g/ha, three weeks after application): 5 (Herbicidal rate of 90% or more (almost completely withered))

Cc1nn(C)c(=O)c(-c2c(-c3ccc(OCC(F)F)cc3)sc3ccccc23)c1O [1-203]
effect on false cleavers (Q) [1]: 5 (Herbicidal rate of 90% or more (almost completely withered))

Cc1nn(C)c(=O)c(-c2c(-c3ccc(F)cc3)sc3ccc(F)cc23)c1O [2-001]
effect on false cleavers (Q) [1]: 5 (Herbicidal rate of 90% or more (almost completely withered))

CCCC(=O)Oc1c(C)nn(C)c(=O)c1-c1c(-c2ccc(OC)cc2)sc2ccc(F)cc12 [2-027]
effect on false cleavers (Q) [1]: 0 (Herbicidal rate of 5% or less (almost no effect))
herbicidal effect rating, Q: false cleavers ([2]; 320 g/ha): 0 (Herbicidal rate of 5% or less (almost no effect))

CCCOc1ccc(-c2sc3ccc(F)cc3c2-c2c(OC(=O)CCC)c(C)nn(C)c2=O)cc1 [2-033]
effect on false cleavers (Q) [1]: 5 (Herbicidal rate of 90% or more (almost completely withered))

CCCC(=O)Oc1c(C)nn(C)c(=O)c1-c1c(-c2ccc(OC(C)C)cc2)sc2ccc(F)cc12 [2-035]
effect on false cleavers (Q) [1]: 4 (Herbicidal rate of 70% or more and less than 90%)

CCCC(=O)Oc1c(C)nn(C)c(=O)c1-c1c(-c2ccc3c(c2)OCO3)sc2ccc(F)cc12 [2-091]
herbicidal effect on Q: false cleavers [1]: 4 (Herbicidal rate of 70% or more and less than 90%)

COc1ccccc1-c1sc2ccc(Cl)cc2c1-c1c(O)c(C)nn(C)c1=O [2-101]
herbicidal effect on Q: false cleavers [1]: 5 (Herbicidal rate of 90% or more (almost completely withered))
Q: false cleavers, herbicidal effect rating [2, 15]: 5 (Herbicidal rate of 90% or more (almost completely withered))

C=CCOC(=O)Oc1c(C)nn(C)c(=O)c1-c1c(-c2ccc(OC(F)F)cc2)sc2ccc(F)cc12 [2-294]
Q: false cleavers, herbicidal effect (criteria 0-5) ([1]; AAH 320 g/ha): 5 (Herbicidal rate of 90% or more (almost completely withered))

COc1cccc(S(=O)(=O)Oc2c(C)nn(C)c(=O)c2-c2c(-c3ccc(OC(F)F)cc3)sc3ccc(F)cc23)c1 [2-313]
Q: false cleavers, herbicidal effect (criteria 0-5) ([1]; AAH 320 g/ha): 5 (Herbicidal rate of 90% or more (almost completely withered))

Cc1nn(C)c(=O)c(-c2c(-c3ccc(CSCC(F)(F)F)cc3)sc3ccc(F)cc23)c1O [2-331]
herbicidal effect on Q: false cleavers [2, 15]: 0 (Herbicidal rate of 5% or less (almost no effect))

COc1ccccc1-c1sc2cc(C)ccc2c1-c1c(O)c(C)nn(C)c1=O [3-049]
Q: false cleavers, herbicidal effect grade ([1]; 274 g/ha, three weeks after application): 5 (Herbicidal rate of 90% or more (almost completely withered))
Q: false cleavers, herbicidal effect grade ([2]; amount of applied herbicide 274 g/ha): 3 (Herbicidal rate of 40% or more and less than 70%)

CCOc1ccccc1-c1sc2cc(OC)ccc2c1-c1c(O)c(C)nn(C)c1=O [3-070]
Q: false cleavers, herbicidal effect grade ([1]; 80 g/ha, three weeks after application): 5 (Herbicidal rate of 90% or more (almost completely withered))
Q: false cleavers, herbicidal effect grade ([2]; amount of applied herbicide 80 g/ha): 1 (Herbicidal rate of 5% or more and less than 20%)

CCCC(=O)Oc1c(C)nn(C)c(=O)c1-c1c(-c2ccc(F)cc2OCC)oc2ccc(C)cc12 [9-010]
herbicidal effect on false cleavers (Q) ([1]; 246 g/ha, three weeks after application): 3 (Herbicidal rate of 40% or more and less than 70%)

Cc1nn(C)c(=O)c(-c2c(-c3ccc(C#N)cc3)sc3ccccc23)c1O [Compound No. 1-045, 5-hydroxy-2,6-dimethyl-4-(2-(4-cyanophenyl)benzo[b]thiophen-3-yl)pyridazin-3(2H)-one]
herbicidal effect grade, Q: false cleavers ([1]; three weeks after application): 5 (Herbicidal rate of 90% or more (almost completely withered))
effect rating on crop, g: rapeseed [3, 15]: 5 (Herbicidal rate of 90% or more (almost completely withered))
effect on crop grade, c: corn ([4]; three weeks after application): 0 (Herbicidal rate of 5% or less (almost no effect))
herbicidal effect rating, Q: false cleavers [2, 15]: 4 (Herbicidal rate of 70% or more and less than 90%)
effect rating on crop, e: wheat [5, 15]: 0 (Herbicidal rate of 5% or less (almost no effect))
effect rating on crop, d: soybean [6, 15]: 3 (Herbicidal rate of 40% or more and less than 70%)
Effect on crop a: transplanted rice (grade 0-5) [7]: 0 (Herbicidal rate of 5% or less (almost no effect))
effect rating on crop, c: corn [8, 15]: 0 (Herbicidal rate of 5% or less (almost no effect))
melting point: 240 to 242 °C
effect on crop grade, e: wheat ([9]; three weeks after application): 0 (Herbicidal rate of 5% or less (almost no effect))
effect on crop grade, g: rapeseed ([10]; three weeks after application): 5 (Herbicidal rate of 90% or more (almost completely withered))
effect on crop b (directly sowed rice), rating 0-5 [11]: 0 (Herbicidal rate of 5% or less (almost no effect))
effect on crop grade, d: soybean ([12]; three weeks after application): 1 (Herbicidal rate of 5% or more and less than 20%)
effect on crop grade, f: beet ([13]; three weeks after application): 5 (Herbicidal rate of 90% or more (almost completely withered))
effect rating on crop, f: beet [14, 15]: 5 (Herbicidal rate of 90% or more (almost completely withered))

Cc1nn(C)c(=O)c(-c2c(-c3ccc(Cl)cc3)sc3ccc(F)cc23)c1O [Compound No. 2-010, 4-(2-(4-chlorophenyl)-5-fluorobenzo[b]thiophen-3-yl)-5-hydroxy-2,6-dimethylpyridazin-3(2H)-one]
effect rating on crop, g: rapeseed ([3]; 320 g/ha): 3 (Herbicidal rate of 40% or more and less than 70%)
effect on corn (c) ([4]; 3 weeks after application): 0 (Herbicidal rate of 5% or less (almost no effect))
effect rating on crop, e: wheat ([5]; 320 g/ha): 0 (Herbicidal rate of 5% or less (almost no effect))
effect rating on crop, d: soybean ([6]; 320 g/ha): 0 (Herbicidal rate of 5% or less (almost no effect))
Effect on crop a: transplanted rice (grade 0-5) [7]: 0 (Herbicidal rate of 5% or less (almost no effect))
effect rating on crop, c: corn ([8]; 320 g/ha): 0 (Herbicidal rate of 5% or less (almost no effect))
melting point: 258 to 259 °C
effect on wheat (e) ([9]; 3 weeks after application): 0 (Herbicidal rate of 5% or less (almost no effect))
effect on rapeseed (g) ([10]; 3 weeks after application): 5 (Herbicidal rate of 90% or more (almost completely withered))
effect on crop b (directly sowed rice), rating 0-5 [11]: 0 (Herbicidal rate of 5% or less (almost no effect))
effect on soybean (d) ([12]; 3 weeks after application): 3 (Herbicidal rate of 40% or more and less than 70%)
effect on beet (f) ([13]; 3 weeks after application): 5 (Herbicidal rate of 90% or more (almost completely withered))
effect rating on crop, f: beet ([14]; 320 g/ha): 3 (Herbicidal rate of 40% or more and less than 70%)
